Here are results for 16 compounds from patent publication US4087489A, “Insecticidal N-polychloroallylamido-thiophosphoric esters” (priority 1975, dated 1978).

Broadly, the LD50 is the dose at which mortality reaches 50%.

Like-named read-outs stand apart in the source and are kept apart here.

The test system of series [1] is Musca domestica. The conditions noted are these: 0.5 γ/insect; literature compounds (Agricultural and Food Chemistry 11, 1963, p.237); cited from earlier work.
Series [2] has as its system Musca domestica. Briefly: Activity test on Musca domestica, topical application. The series is classed as in vivo. Here is the method: Activity of "Musca domestica" by O-methyl-O-(2,4,5-trichlorophenyl)-phosphoroamidothioates with relationship to the weight of the alkyl group bound to the nitrogen atom (iso-C3 H7 = 1) in comparison with that of the compound of Example 1 of this invention (in a quantity of 0.5 γ/insect):
Adult 4-day flies were treated by topical application by means of a micro-syringe of 1 cubic millimeters (mm^3) of an acetone solution at 0.5 γ/ .mm^3 according to Example 1. […] (The death-rate of the flies treated with 1 .mm^3 of acetone under the same conditions was equal to 0).

In series [3] the test system is Macrosiphum Euphorbiae. Nature of the series: Activity test on Macrosiphum euphorbiae (aphides) on potato plants. The series is classed as in vivo. The source says:
Small potato plants, grown in pots, were infested with adult aphide females and, after a few hours, subjected to besprinkling with an aqueous dispersion of the product of Example 1, at a concentration of 0.1%. The percentual death-rate turned out to be 100% (on small untreated plants = 0).
(§1) In order to show how the compounds of the invention have different activities depending on the species at varying concentrations, the death-rate percentages on various infesting kinds of compounds of the invention at varying concentrations of active principle have been recorded in Table II.

Series [4] relates to Culex pipiens. Nature of the series: Activity test on Culex pipiens larvae in aqueous dispersion. The series is classed as in vivo.
Text: Into glasses containing an aqueous dispersion of the product of Example 1 and at a concentration of 0.005 parts per million, p.p.m.: there were introduced larvae of third and fourth age.
as §1

Series [5] has as its system Leptinotarsa decemlineata. Nature of the series: Activity test on Leptinotarsa decemlineata larvae on potato plants. The series is classed as in vivo. Conditions: for mortality at 1 %: read-out: % mort. Leptinot. Decemlin.
Text: Potato plants grown in pots were infested with 4-day old larvae and subjected to besprinkling with an aqueous 0.1% dispersion of the product of Example 1.
as §1

Series [6] in a line: Acute oral toxicity (DL 50) in the albino mouse. The conditions noted are these: in vivo.
The test system of series [7] is Tetran. Urt. adults. Briefly: Activity on Tetran. Urt. adults (Table II). The series is classed as in vivo.
Text: as §1

Series [8] deals with Spodopt. Littoralis. Briefly: Activity on Spodopt. Littoralis (Table II). The conditions noted are these: 1 % a.p. It counts as in vivo.
Text: as §1

The test system of series [9] is Tetran Urt. eggs. Nature of the series: Activity on Tetran Urt. eggs (Table II). The series is classed as in vivo.
Text: as §1

The subject of series [10] is Pieris Brassicae. Briefly: Activity on Pieris Brassicae (Table II). The series is classed as in vivo. Conditions: read-out: % mort. Pieris Brassicae.
Text: as §1

For series [11], the system named is albino mouse. Conditions: oral, comparison value; cited from earlier work.

Regarding `COP(=S)(NC(C)C)Oc1ccc(Cl)cc1Cl` (stereo not drawn), the “Percentual death-rate on Musca domestica” value in [1] is 100%.
As for `COP(=S)(NC(C)C)Oc1cc(Cl)c(Cl)cc1Cl` (stereo not drawn), the “Percentual death-rate on Musca domestica” value in [1] was 100%.
On to `COP(=S)(NCC(C)C)Oc1cc(Cl)c(Cl)cc1Cl` (stereo not drawn), for which the “Percentual death-rate on Musca domestica” value in series [1] was 92%.
As for `COP(=S)(NC(C)(C)C)Oc1cc(Cl)c(Cl)cc1Cl` (stereo not drawn), the “Percentual death-rate on Musca domestica” value in series [1] is 13%.
Regarding `CCOP(=S)(NCC=C(Cl)Cl)Oc1cc(Cl)c(Cl)cc1Cl` (stereo not drawn) [Example 1, O-ethyl-O-(2,4,5-trichlorophenyl)-N-(3,3-dichloro-allyl)amido-thiophosphate], in [2] (0.5 γ/insect, Table I), the “Percentual death-rate on Musca domestica” value turned out to be 100%. In series [2] (adult 4-day flies, topical 1 mm^3 acetone solution at 0.5 γ/mm^3, after 24 hours), this compound displayed a death-rate of 100%. Besides, the mortality at 0.1 % in [3] (read-out: percentual death-rate) stood at 100%; in series [5] (4-day old larvae on potato plants, aqueous 0.1% dispersion, after 48 hrs, read-out: percentual death-rate of the larvae) it was 100%. In addition, in [4] (larvae of third and fourth age, 0.005 p.p.m., after 24 hours, read-out: death-rate), the mortality at 0.005 ppm came out at 100%. Besides, the LD50 in series [6] is > 100 mg/kg.
`CSc1ccc(OP(=S)(NCC=C(Cl)Cl)OC(C)C)cc1C` (stereo not drawn) [Example M7468]: the mortality at 0.02 µg/mL in [4] (0,02 ppm a.p., read-out: % mort. Oulex Pipens) was 30%. For the same compound, the mortality at 1 % in [5] (1 % a.p.) is 30%. Also, the “% mort. Tetran. Urt. adults” value in series [7] (0,1 % a.p.) is reported as 0%. Besides, the “% mort. Spodopt. Littoralis” value in [8] is 0%.
For `COP(=S)(Oc1ccc(SC)c(C)c1)N(C)CC=C(Cl)Cl` (stereo not drawn) [Example M7469], the mortality at 1 % in series [5] turned out to be 20%. In addition, the “% mort. Tetran Urt. eggs” value in series [9] (0,1 % a.p.) was determined as 24%; in series [9] (1 % a.p.), 100%. The “% mort. Spodopt. Littoralis” value in [8] is recorded as 15%.
Regarding `CCOP(=S)(NCC=C(Cl)Cl)Oc1ccc([N+](=O)[O-])c(C)c1` (stereo not drawn) [M 6986], the mortality at 1 % in [3] (1 % a.p., read-out: % mort. Macrosiphum Euphorbiae) is 100%; in series [5] (1 % a.p.), 40%; in series [10] (1 % a.p.), 100%. For the same compound, in [4] (0,2 ppm a.p., read-out: % mort. Oulex Pipens), the mortality at 0.2 µg/mL was 100%. Besides, the mortality at 2 µg/mL in [4] (read-out: % mort. Oulex Pipens) is 100%. The “% mort. Tetran. Urt. adults” value in [7] (1 % a.p.) is given as 26%. In addition, the “% mort. Tetran Urt. eggs” value in series [9] (1 % a.p.) is 12%. Besides, the “% mort. Spodopt. Littoralis” value in series [8] is 5%.
`CC(C)OP(=S)(NCC=C(Cl)Cl)Oc1cc(Cl)c(Cl)cc1Cl` (stereo not drawn) [M 7147]: the mortality at 1 % is 75% in [5] and 20% in series [10]. The “% mort. Tetran. Urt. adults” value in series [7] (1 % a.p.) is 47%.
Turning to `COP(=S)(NCC=C(Cl)Cl)Oc1cc(Cl)c(Cl)cc1Cl` (stereo not drawn) [M 7160], the mortality at 1 % in [5] (1 % a.p.) was 40%. The “% mort. Spodopt. Littoralis” value in [8] is on record as 55%.
Consider `COP(=S)(NCC=C(Cl)Cl)Oc1ccc([N+](=O)[O-])c(C)c1` (stereo not drawn) [M 7415], for which the mortality at 1 % in series [5] (1 % a.p.) came to 70%.
In the case of `COP(=S)(NCC=C(Cl)Cl)Oc1ccc(SC)c(C)c1` (stereo not drawn) [M 7466], the “% mort. Spodopt. Littoralis” value in [8] is listed as 0%.
Take `CCOP(=S)(NCC=C(Cl)Cl)Oc1ccc(SC)c(C)c1` (stereo not drawn) [M 7467]: the mortality at 1 % in series [5] (1 % a.p.) came out at 55%. Moreover, the “% mort. Spodopt. Littoralis” value in series [8] is on record as 30%.
As for `CCOP(=S)(Oc1ccc(SC)c(C)c1)N(C)CC=C(Cl)Cl` (stereo not drawn) [M 7470], the “% mort. Tetran. Urt. adults” value in series [7] (0,01 % a.p.) was determined as 4%. Moreover, the “% mort. Spodopt. Littoralis” value in series [8] came out at 25%.
As to `CSc1ccc(OP(=S)(OC(C)C)N(C)CC=C(Cl)Cl)cc1C` (stereo not drawn) [M 7471], the mortality at 1 % in series [5] (1 % a.p.) worked out at 65%. In [10] (0,1 % a.p.), the mortality at 0.1 % stood at 0%. Moreover, the “% mort. Tetran. Urt. adults” value in [7] (1 % a.p.) was 57%. For the same compound, the “% mort. Spodopt. Littoralis” value in series [8] is recorded as 0%.
On to `CCOP(=S)(OCC)Oc1ccc([N+](=O)[O-])cc1` [Parathion, O,O-diethyl-O-p-nitrophenyl-phosphorthioate], for which, in series [11], the “D.L. 50” value is 14 mg/kg.
